Our source for the melting point values is a melting point compilation (Tetko et al.; mined from patent text by program, amines drawn as free bases though some values may be those of a salt).

The melting point is the temperature, or range, at which the solid turns liquid.

SMILES strings stand for the structures.

Take `O=C1CCc2c1ccc(F)c2F`: the melting point fell in the range of 28 to 32 °C. To `CC1CCNC1=C[N+](=O)[O-]` (centres undefined) belongs 47 to 47.5 °C; to `CCOC(=O)C1=Cc2cc(Cl)cc(Br)c2OC1C(F)(F)F` (centres undefined), 101 to 102 °C. The figure for `CCOC(=O)c1nc2ccc(I)cc2[nH]1` is 166 to 168 °C; for `CCNC(=O)c1ccccc1Nc1nc(Nc2cc3c(cc2OC)CCN(CC(=O)NC)CC3)ncc1Cl` it is 99 to 110 °C; for `Cc1oc(-c2ccccc2)nc1CCOc1ccc(CCCCC2OC(=O)NC2=O)cc1` (centres undefined) it is 136 to 137 °C. The figure for `CNc1c(F)c(F)c(F)c2c1c(=O)c(C(=O)O)cn2C1CC1` is 205 to 207 °C; for `COc1ccc(S(=O)(=O)Nc2ccccc2OC)cc1` it is 85.5 to 87 °C. Consider `CCCCc1c2ccccc2cc2ccccc12`, for which the melting point worked out at 49 °C. To `CN1CCN(c2n[nH]c(-c3ccc(I)cc3)c2-c2ccncc2)CC1` belongs 265 to 266 °C; to `COc1ccc(-c2nc(N)ncc2-c2ccc(=O)n(C(C)C)n2)cc1`, 216 °C. With `CC(=O)Nc1ncc(C)cc1C(C)=O`, the melting point is 99 to 100 °C.

As to `NC(=O)c1ccc([N+](=O)[O-])c(CN2C(=O)c3ccccc3C2=O)c1`, the melting point fell in the range of 100 to 124 °C. On to `CCOC(=O)C1=C(C)NC(C=O)=C(C(=O)OCC)C1c1cc([N+](=O)[O-])ccc1Cl` (centres undefined), for which the melting point lay in the range of 172 to 173 °C.

Compound `O=C(Nc1cccnc1)N1CCN(c2cc(-c3cccc(F)c3)ncn2)CC1` had a melting point of 205 to 206 °C. As for `COc1ccc(C(=O)C#N)cc1`, the melting point fell in the range of 51 to 53 °C.

Compound `CCCCc1nc2ccccn2c(=O)c1-c1ccc(Cl)cc1C` registered a melting point of 105 to 107 °C.

Compound `O=C1CCC(C(=O)OC2c3ccccc3C(=O)N2c2ccc3ccc(Cl)nc3n2)CC1` (centres undefined) yielded a melting point of 203 °C.

For the compound `Sc1ccc(-c2nc3cnccc3[nH]2)cc1`, the melting point was 230 °C. `COC(=O)CCCCCCCCCCCCCCCNc1ccc(C(=O)OC)cc1` yielded a melting point of 92 to 93 °C. `CC(C)(C)NC(=O)c1ccc(-c2ccc3nnn(Cc4ccc5ncccc5c4)c3n2)cc1F` had a melting point of 210 to 212 °C.

As to `CCOC(=O)c1ccc2c(c1)c(C)c(C)n2C(C)=O`, the melting point was 98 to 101 °C. Take `CCOC(=O)c1ccc(C(C(N)=O)C(CCc2ccccc2)c2ccccc2N2CCCCC2)cc1` (centres undefined): the melting point fell in the range of 118 to 119 °C. To `CCON=C(CC)C1=C(O)CC(c2c(C)c(C)c3c(c2Cl)CC(C)(CC)C3)CC1=O` (centres undefined) belongs 93 to 94 °C; to `Brc1cncc(-c2ccccc2)c1`, 42 to 44 °C; to `CC1(C)OC(c2ccc(S(N)(=O)=O)cc2)=C(c2cc3ccccc3s2)C1=O`, 120 to 121 °C. Turning to `Cc1cc(-n2ccnc2)c2cccc(OCc3c(Cl)ccc(S(=O)(=O)N4CCC[C@H]4C(=O)NCCc4cccnc4)c3Cl)c2n1`, the melting point came to 117 °C.

With `FC(F)(F)c1cccc(NC2CCCN(c3ccc(Cl)nn3)C2)c1` (centres undefined), the melting point came to 92.6 °C. To `CCCCCCCCSc1nc2cc(Cl)ccc2[nH]1` belongs 66 to 67 °C; to `C=CCOC(=O)c1ccc(COC(=O)c2ccc(OC(C)C)c(C(C)(C)C)c2)cc1`, 63 to 64 °C. The figure for `Cc1nn(C)c(N)c1C(=O)Nc1ccccc1C(C)C` is 144 to 146 °C.

`Cc1ccc(Sc2cc(C(=O)O)ccc2C(=O)O)cc1` came in with a melting point of 326 °C. To `CC(=O)OC1CCCCC1n1cnc2cc(Cl)c(Cl)cc21` (centres undefined) belongs 145 to 147 °C. `FC(F)(F)c1cccc(Nc2nc(NCc3ccco3)nc(-c3ccccc3)n2)c1`: the melting point was in the range of 133 to 134 °C. To `CCCCCCCCCCCCOCCOc1ccc(C(=O)OC)cc1` belongs 40 to 42 °C. `Cn1nc(-c2nc(C#Cc3ccccc3)c(N)nc2-c2ccccc2)ccc1=O` showed a melting point of 234 to 236 °C. `CC(Nc1nc(NNC(=O)CCCl)nc(Cl)c1-c1c(F)cccc1Cl)C(F)(F)F` (centres undefined): the melting point lay in the range of 152 to 156 °C. To `CC[C@@H](c1ccccc1)N(Cc1ccc(C(=O)O)cc1)S(=O)(=O)c1ccc(Cl)cc1` belongs 154 to 156 °C; to `CS(=O)(=O)c1cc(Br)nc(Br)c1`, 137 to 138 °C.

On to `CC(=O)C1Cc2c(nc3ccccc3c2C)C(N2CCOCC2)CN1` (centres undefined), for which the melting point is 179 °C. To `O[C@H]1CC[C@@H](Nc2ncc3ncnc(Nc4ccc(F)c(Cl)c4)c3n2)CC1` belongs 270 to 275 °C; to `CCCc1c(OCCCSc2ccc(C(=O)NCC(=O)OCC)cc2)ccc(C(C)=O)c1O`, 115 to 116 °C. On to `O=C(c1cc2ccnc(Cl)c2[nH]1)N1CCCC1`, for which the melting point is 152 to 154 °C. To `COc1cc(C2CCN(C(=O)CN(C)C)CC2)ccc1Nc1ncc2ccc(-c3ccccc3N(C)S(C)(=O)=O)n2n1` belongs 99 to 110 °C; to `O=C(Oc1ccccc1)Sc1nc2ccccc2n1C1CCN(C(=O)Oc2ccccc2)CC1`, 200 to 203 °C. `O=C(Cc1ccc(F)cc1)c1ccccc1` came in with a melting point of 109 to 110 °C. On to `CCON=C(C)c1cccc(Oc2nc(OC)cc(OC)n2)c1C(=O)OC`, for which the melting point was 93 to 95 °C. To `C=CCOc1cccc(-n2cnc(C(=O)OCC)c2)c1` belongs 53 to 55 °C; to `N#Cc1cc([N+](=O)[O-])ccc1NCCCn1ccnc1`, 177 °C; to `COCOc1cc(CCCOc2ncccc2CC(=O)O)n(Cc2ccc(Cl)cc2Cl)n1`, 101 to 102 °C. Take `Nc1nc(N)nc(-c2cccc(-n3cccc3)c2)n1`: the melting point lay within 164 to 170 °C. To `NC(=O)N(O)Cc1ccc(OCCc2csc(-c3ccccc3)n2)cc1` belongs 137 to 138 °C; to `CC1(C)[C@@H](CNc2ncccc2C#N)CC[C@@]1(C)NCC(=O)N1C[C@@H](F)C[C@H]1C#N`, 96 to 99 °C; to `Cc1nc(N2C[C@H](C)N(Cc3ccc(F)cc3)C2=O)sc1C(=O)O`, 208 to 210 °C. To `N#Cc1nn(-c2c(Cl)cc(C(F)(F)F)cc2Cl)c(N)c1C(=O)C(F)(F)F` belongs 226 °C. The compound `CC(=O)Nc1c(C(=O)c2ccccc2)[nH]c2ccc(Br)cc12` had a melting point of 192 to 194 °C. In turn, `CN1CCC[C@H]1COc1ccc(/C=C/C(=O)O)cc1` yielded a melting point of 251 °C. To `CC(C)c1cccc(C(C)C)c1NC(=O)Nc1ccc(Oc2ccc3nc(COc4ccc(CC5SC(=O)NC5=O)cc4)n(C)c3c2)cc1` (centres undefined) belongs 222 to 225 °C.

Regarding `Cc1cc(-c2ccc3c(c2)c2cc(-c4ccc(Cl)cc4Cl)c(=O)n(C)c2n3C)[nH]n1`, the melting point fell in the range of 309 to 310 °C. In turn, `COC(=O)C#CC1CCC2C3CCC4CC(O)CCC4(C)C3CCC12C` (centres undefined) yielded a melting point of 135 to 137 °C. To `CSCC(C)(C)NC(=O)c1ccccc1Cl` belongs 83 to 86 °C; to `Cn1nc(C(F)(F)F)c(C=O)c1O`, 116 to 118 °C. The figure for `COc1cc(/C=C/C(=O)NCCN2CCC(c3c[nH]c4ccccc34)CC2)ccc1O` is 115 to 135 °C; for `Cc1ccc(C2C(=O)N(c3ccccc3)N(c3ccccc3)C2=O)cc1` it is 184 to 185 °C.
